The test deals with T1, human calcium-sensing receptor (CaSR) (Homo sapiens, UniProt P41180).
T1 construct: expressed in transfected cells
T1 sequence (P41180 20-1078): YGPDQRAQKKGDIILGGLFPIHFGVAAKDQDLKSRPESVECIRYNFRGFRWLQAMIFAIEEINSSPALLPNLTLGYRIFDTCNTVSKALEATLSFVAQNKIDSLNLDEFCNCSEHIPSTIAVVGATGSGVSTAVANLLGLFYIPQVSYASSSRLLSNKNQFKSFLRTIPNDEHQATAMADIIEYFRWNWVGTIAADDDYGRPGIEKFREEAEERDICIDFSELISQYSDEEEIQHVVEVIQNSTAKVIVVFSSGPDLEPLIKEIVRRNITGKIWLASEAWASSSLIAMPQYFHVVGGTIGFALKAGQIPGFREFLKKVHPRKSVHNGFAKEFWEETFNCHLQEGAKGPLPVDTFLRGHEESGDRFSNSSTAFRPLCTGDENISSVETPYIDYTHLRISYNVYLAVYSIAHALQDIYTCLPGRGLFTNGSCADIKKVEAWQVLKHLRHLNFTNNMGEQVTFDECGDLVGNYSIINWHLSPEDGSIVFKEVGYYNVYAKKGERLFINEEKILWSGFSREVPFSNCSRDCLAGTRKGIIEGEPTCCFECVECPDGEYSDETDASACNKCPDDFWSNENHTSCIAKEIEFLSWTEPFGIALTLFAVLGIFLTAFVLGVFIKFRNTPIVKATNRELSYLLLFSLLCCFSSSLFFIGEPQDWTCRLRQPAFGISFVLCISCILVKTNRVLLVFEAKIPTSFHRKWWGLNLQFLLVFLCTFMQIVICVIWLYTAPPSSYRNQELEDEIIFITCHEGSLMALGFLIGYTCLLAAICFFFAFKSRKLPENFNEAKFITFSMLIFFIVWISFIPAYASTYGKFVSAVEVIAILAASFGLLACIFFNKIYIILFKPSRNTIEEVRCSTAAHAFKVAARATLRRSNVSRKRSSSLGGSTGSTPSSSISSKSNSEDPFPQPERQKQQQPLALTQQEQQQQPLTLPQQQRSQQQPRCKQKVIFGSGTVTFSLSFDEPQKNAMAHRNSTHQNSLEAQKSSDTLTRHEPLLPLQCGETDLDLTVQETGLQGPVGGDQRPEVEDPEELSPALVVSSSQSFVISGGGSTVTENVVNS
Put plainly: Inhibitory activity on calcium-sensing receptor (CaSR), intracellular calcium increase as indicator (FLIPR, CHO/hCaSR). The format is cell-based. The following applies: CHO cells stably expressing human CaSR; inhibition of intracellular Ca increase induced by extracellular CaCl2. On the procedure: Evaluation of inhibitory activity on calcium-sensing receptor (CaSR) using intracellular calcium increase as an indicator
The preparation which is prepared by adding CHO/hCaSR to F12 medium (manufactured by Invitrogen) containing 10% fetal bovine serum to have 2×10^5 cells/mL was applied to a 384-well in an amount of 50 μL/well, and then incubated overnight in a CO2 incubator. The culture supernatant was completely removed, the assay buffer (20 mM HEPES, HBSS (Ca and Mg free) containing 2.5 mM probenecid, pH 7.4) containing Calcium 3 (manufactured by Molecular Devices), i.e., a fluorescent intracellular calcium indicator, was added thereto in an amount of 25 μL/well, and the mixture was maintained for 1 hour in a CO2 incubator. Meanwhile, Calcium 3 was prepared according to the protocol enclosed in FLIPR Calcium 3 Assay Kit (manufactured by Molecular Devices). After maintaining it for 1 hour, a solution in which the test compound is prepared to have 2.1 to 20,000 nM (final concentration of 1.05 to 10,000 nM) by an assay buffer was added thereto in an amount of 25 μL/well, and maintained for 15 minutes in a CO2 incubator. Then, the CaCl2 solution prepared to have […] by using the assay buffer was added in an amount of 25 μL/well, and the resulting intracellular Ca increase (i.e., fluorescence intensity) was measured over time using a fluorescence imaging plate reader (FLIPR, manufactured by Molecular Devices). From the data obtained, the difference between the fluorescence intensity before the addition of CaCl2 solution and the maximum fluorescence intensity after the addition of CaCl2 solution was calculated, and the 50% inhibition concentration (IC50) of the test compound was obtained.
In general terms: Calcium assays in cells follow changes in intracellular calcium, usually with a dye or a luminescent sensor.

Broadly, the IC50 is the concentration needed to halve the response being measured.

For the molecule `Cc1ccc(C[C@@H]2CCCN2C[C@@H](O)CO[C@H](C)c2cc(F)c(F)cc2CCC(=O)O)cc1Cl` [Example 176], the IC50 is not above 3.23 µM. Regarding `CCC[C@@H](OC[C@H](O)CN1CCC[C@H]1Cc1ccc(C)c(F)c1)c1cccc(C)c1CCC(=O)O` [Example 62], the IC50 is not above 3.29 µM.

Regarding `Cc1ccc(C[C@@H]2CCCN2C[C@@H](O)CO[C@H](C)c2cccc(OC(C)C)c2CCC(=O)O)cc1F` [Example 73], the IC50 was not above 3.19 µM. `Cc1ccc(C[C@@H]2CCCN2C[C@@H](O)COC(C)c2c(Cl)cccc2CCC(=O)O)cc1F` (some centres unmarked) [Example 157]: the IC50 was not above 3.35 µM. With `CC[C@@H](OC[C@H](O)CN1CCC[C@H]1Cc1ccc(C)c(Cl)c1)c1cc(F)c(F)cc1CCC(=O)O` [Example 144] the figure was not above 3.14 µM. Take `CC[C@@H](OC[C@H](O)CN1CCC[C@H]1Cc1ccc(C)c(F)c1)c1cc(F)c(C)cc1CCC(=O)O` [Example 69]: the IC50 is not above 3.27 µM.

For the molecule `Cc1ccc(C[C@@H]2CCCN2C[C@@H](O)CO[C@H](C)c2cc(Cl)ccc2CCC(=O)O)cc1F` [Example 79], the IC50 was not above 3.35 µM.

Consider `CCC[C@@H](OC[C@H](O)CN1CCC[C@H]1Cc1ccc(C)c(F)c1)c1cccc(F)c1CCC(=O)O` [Example 63], for which the IC50 was not above 3.27 µM.

For the molecule `CC[C@@H](OC[C@H](O)CN1CCC[C@H]1Cc1ccc(C)c(F)c1)c1cc(F)c(F)cc1CCC(=O)O` [Example 154], the IC50 was not above 3.24 µM.

In the case of `Cc1ccc([C@@H](C)OC[C@H](O)CN2CCC[C@H]2Cc2ccc(Cl)c(F)c2)c(CCC(=O)O)c1` [Example 128], the IC50 is not above 3.35 µM.

Turning to `Cc1ccc(C[C@@H]2CCCN2C[C@@H](O)CO[C@H](C)c2cccc(OC(C)C)c2CCCCC(=O)O)cc1F` [Example 74], the 50% inhibitory concentration (IC50) was not above 3.02 µM. As to `Cc1ccc(C[C@@H]2CCCN2C[C@@H](O)CO[C@H](C)c2cc(F)c(C)cc2CCC(=O)O)cc1F` [Example 22], the IC50 was not above 3.36 µM. On to `C[C@@H](OC[C@H](O)CN1CCC[C@H]1Cc1ccc(Cl)c(F)c1)c1cccc(Cl)c1CCC(=O)O` [Example 153], for which the IC50 was not above 3.21 µM.

Turning to `Cc1cc(CCC(=O)O)c([C@@H](C)OC[C@H](O)CN2CCC[C@H]2Cc2ccc(Cl)c(F)c2)cc1F` [Example 148], the IC50 was not above 3.23 µM. Consider `CC[C@@H](OC[C@H](O)CN1CCC[C@H]1Cc1ccc(C)c(F)c1)c1cc(F)cc(F)c1CCC(=O)O` [Example 155], for which the IC50 was not above 3.24 µM. For the molecule `CC[C@@H](OC[C@H](O)CN1CCC[C@H]1Cc1ccc(Cl)c(F)c1)c1cc(F)cc(F)c1CCC(=O)O` [Example 141], the IC50 is not above 3.11 µM.

In the case of `CC[C@@H](OC[C@H](O)CN1CCC[C@H]1Cc1ccc(C)c(F)c1)c1cc(F)c(C)cc1CCCCC(=O)O` [Example 70], the IC50 is not above 3.09 µM. With `Cc1ccc(C[C@@H]2CCCN2C[C@@H](O)CO[C@H](C)c2ccccc2CCC(=O)O)cc1Cl` [Example 84] the figure was not above 3.48 µM; with `CC[C@@H](OC[C@H](O)CN1CCC[C@H]1Cc1ccc(Cl)c(F)c1)c1ccc(Cl)cc1CCC(=O)O` [Example 137], not above 3.12 µM; with `Cc1ccc(C[C@@H]2CCCN2C[C@@H](O)CO[C@H](C)c2cccc(OC(F)F)c2CCC(=O)O)cc1F` [Example 75], not above 3.14 µM. Turning to `CC[C@@H](OC[C@H](O)CN1CCC[C@H]1Cc1ccc(Cl)c(Cl)c1)c1cc(F)cc(F)c1CCC(=O)O` [Example 110], the IC50 is not above 3.02 µM.

As for `CCc1cc(C[C@@H]2CCCN2C[C@@H](O)CO[C@H](C)c2cc(F)ccc2CCC(=O)O)ccc1Cl` [Example 99], the IC50 was not above 3.25 µM.

For the molecule `CCc1cc(C[C@@H]2CCCN2C[C@@H](O)CO[C@H](C)c2cc(F)cc(F)c2CCC(=O)O)ccc1Cl` [Example 107], the IC50 was not above 3.14 µM. For the molecule `CC[C@@H](OC[C@H](O)CN1CCC[C@H]1Cc1ccc(Cl)c(F)c1)c1cccc(F)c1CCC(=O)O` [Example 139], the IC50 was not above 3.23 µM. Turning to `Cc1ccc(C[C@@H]2CCCN2C[C@@H](O)CO[C@H](C)c2cccc(F)c2CCCCC(=O)O)cc1F` [Example 58], the half-maximal inhibitory concentration (IC50) was not above 3.27 µM. For `C[C@@H](OC[C@H](O)CN1CCC[C@H]1Cc1ccc(Cl)c(Cl)c1)c1cccc(F)c1CCC(=O)O` [Example 92] the value was not above 3.21 µM; for `Cc1ccc([C@@H](C)OC[C@H](O)CN2CCC[C@H]2Cc2ccc(Cl)c(Cl)c2)c(CCC(=O)O)c1` [Example 97], not above 3.24 µM.

Turning to `CCc1cc(C[C@@H]2CCCN2C[C@@H](O)CO[C@H](C)c2cc(F)c(C)cc2CCC(=O)O)ccc1Cl` [Example 146], the IC50 is not above 3.16 µM. As to `CC[C@@H](OC[C@H](O)CN1CCC[C@H]1Cc1ccc(C)c(F)c1)c1cc(F)ccc1CCC(=O)O` [Example 43], the IC50 was not above 3.36 µM. `Cc1ccc(C[C@@H]2CCCN2C[C@@H](O)CO[C@H](C)c2ccccc2CCC(=O)O)cc1F` [Example 2, 3-{2-[(1R)-1-({(2R)-3-[(2S)-2-(3-Fluoro-4-methylbenzyl)pyrrolidin-1-yl]-2-hydroxypropyl}oxy)ethyl]phenyl}propanoic acid]: the IC50 is not above 3.61 µM.

On to `Cc1ccc(C[C@@H]2CCN2C[C@@H](O)CO[C@H](C)c2ccccc2CCCCC(=O)O)cc1F` [Example 15, 5-{2-[(1R)-1-({(2R)-3-[(2R)-2-(3-Fluoro-4-methylbenzyl)azetidin-1-yl]-2-hydroxypropyl}oxy)ethyl]phenyl}pentanoic acid], for which the IC50 is not above 3.5 µM.

Consider `C[C@@H](OC[C@H](O)CN1CCC[C@H]1Cc1ccc(Cl)c(F)c1)c1cccc(F)c1CCC(=O)O` [Example 91], for which the 50% inhibitory concentration (IC50) was not above 3.32 µM. With `C[C@@H](OC[C@H](O)CN1CCC[C@H]1Cc1ccc(Cl)c(Cl)c1)c1cc(F)ccc1CCC(=O)O` [Example 96], the IC50 is not above 3.21 µM. As to `Cc1ccc(C[C@@H]2CCCN2C[C@@H](O)CO[C@H](C)c2ccc(Cl)cc2CCC(=O)O)cc1F` [Example 78], the IC50 is not above 3.35 µM.

In the case of `CCC[C@@H](OC[C@H](O)CN1CCC[C@H]1Cc1ccc(C)c(F)c1)c1cc(Cl)ccc1CCC(=O)O` [Example 123], the IC50 is not above 3.16 µM. As for `Cc1ccc(C[C@@H]2CCCN2C[C@@H](O)CO[C@H](C)c2ccc(F)c(C)c2CCC(=O)O)cc1F` [Example 20], the IC50 was not above 3.36 µM. Take `C[C@@H](OC[C@H](O)CN1CCC[C@H]1Cc1ccc(Cl)c(F)c1)c1cc(F)ccc1CCC(=O)O` [Example 130]: the IC50 is not above 3.32 µM. With `CC[C@@H](OC[C@H](O)CN1CCC[C@H]1Cc1ccc(C)c(F)c1)c1cccc(Cl)c1CCC(=O)O` [Example 112], the IC50 was not above 3.25 µM. With `COc1cccc([C@@H](C)OC[C@H](O)CN2CCC[C@H]2Cc2ccc(C)c(Cl)c2)c1CCC(=O)O` [Example 167], the IC50 was not above 3.27 µM. With `Cc1ccc(C[C@@H]2CCCN2C[C@@H](O)CO[C@H](C)c2ccc(Cl)cc2CCC(=O)O)cc1Cl` [Example 127] the figure was not above 3.24 µM; with `CCc1cc(C[C@@H]2CCCN2C[C@@H](O)CO[C@H](CC)c2cccc(OC)c2CCC(=O)O)ccc1Cl` [Example 116], not above 3.09 µM; with `CCc1cc(C[C@@H]2CCCN2C[C@@H](O)CO[C@H](CC)c2cc(F)ccc2CCC(=O)O)ccc1Cl` [Example 105], not above 3.16 µM. Turning to `CCc1cc(C[C@@H]2CCCN2C[C@@H](O)CO[C@H](CC)c2cccc(F)c2CCC(=O)O)ccc1Cl` [Example 109], the IC50 was not above 3.16 µM. In the case of `CCc1cc(C[C@@H]2CCCN2C[C@@H](O)CO[C@H](C)c2cccc(F)c2CCC(=O)O)ccc1Cl` [Example 93], the IC50 was not above 3.25 µM.

The record behind these values is patent publication US8173631B2, “Cyclic amine compounds” (Daiichi Sankyo Company, Limited, priority 2008, dated 2012).
